{"source": "patent US20130089529A1", "about": "“AGENT FOR OSTEOGENESIS USING SUBSTANCE-P AND PREPARATION PROCESS THEREOF” (UNIVERSITY-INDUSTRY COOPERATION GROUP OF KYUNGHEE UNIVERSITY, priority 2010, published 2013)", "origin": "cited, not measured here", "key": {"MSCs": {"system": "MSCs", "settings": "in vitro 3-D collagen gel; by inducing matrix-degrading enzymes and inhibiting their inhibitors; previous study KR 10-2006-0037176"}, "CD29+ MSCs": {"system": "CD29+ MSCs", "settings": "mice without wound, intravenous injection of Substance-P, versus non-injected mice; previous study KR 10-2006-0037176"}}, "data": [{"substance": "Substance-P", "values": [{"measurement": "Migration of MSCs in 3-D collagen gel", "setting": "MSCs", "result": "stimulated migration of MSCs"}, {"measurement": "CD29+ MSCs mobilized into peripheral blood, relative to non-injected mice", "setting": "CD29+ MSCs", "result": "approximately 15 times"}]}]}
